Molecules are shown by their SMILES.

Data set [1] can be described thus: Solubility of fludioxonil in various vegetable oils. It is filed as physicochemical. The conditions noted are these: 5C, 25C and 50C, FIG. 1. The procedure:
0.5 g of fludioxonil technical was mixed separately with 5 g of various oils (peanut oil, castor oil, cottonseed oil, olive oil, canola oil, linseed oil, sunflower oil, safflower oil, corn oil, and soybean oil) and incubated at 3 different temperatures (5C, 25C and 50C). The mixtures were then centrifuged and the clear oil supernatant was recovered and analyzed for fludioxonil content.

The nature of data set [2]: Crystallization study of formulation containing fludioxonil (storage, 325 mesh sieve residue). Format: physicochemical. The note with it: 2 weeks Condition 1 then 2 weeks at 25° C. or 5° C., FIG. 3. The procedure:
A formulation containing 0.72% w/w fludioxonil, 0.72% w/w picarbutrazox, 1.43% w/w sedaxane, 4.30% w/w thiabendazole and 1.07% w/w mefenoxam was prepared with castor oil or MK 116 Wax or soybean oil as the flow aid. Castor oil loading was maintained at 10% w/w. MK 116 wax loading was maintained at 5% w/w, whereas soybean oil concentration was varied over a range of 5-12% w/w. The formulation was aliquoted into 50 g samples and placed at temperatures of 50° C., 45° C. 38° C., a freeze thaw cycle going from 50° C. to −10° C. and at 25° C. These formulations were stored for 2 weeks at the indicated conditions (Condition 1), after which they were removed and placed at 25° C. or 5° C. for 2 weeks (Condition 2). After completion of the storage regime, the formulations were diluted with 200 mL of water and poured through a 325 mesh sieve. The residue was collected and analysed for the presence of fludioxonil.

Take `N#Cc1c[nH]cc1-c1cccc2c1OC(F)(F)O2` [fludioxonil]: the “solubility of fludioxonil in oil” value in data set [1] (all other oils (peanut, cottonseed, olive, canola, linseed, sunflower, safflower, corn, soybean)) is “essentially the same solubilities”; in data set [1] (castor oil), “significantly improved solubility”. Moreover, the “loss of fludioxonil (fludioxonil content of sieve residue)” value in data set [2] (MK 116 wax 5% w/w as flow aid) is “resulted in loss of fludioxonil”; in data set [2] (castor oil 10% w/w as flow aid) it was “did not”; in data set [2] (soybean oil 5-12% w/w as flow aid), “resulted in loss of fludioxonil”.

(Values after patent US20240415114A1, “AGROCHEMICAL FORMULATIONS FOR MITIGATING CRYSTALLIZATION” (SYNGENTA CROP PROTECTION AG, priority 2021, published 2024).)
